Results taken from US20260308158A1, “TARGETING RNAS ASSOCIATED WITH TAUOPATHIES WITH SMALL MOLECULES” (University of Florida Research Foundation, Incorporated, priority 2023, published 2026).

Assays:
[1] = test system: WT MAPT mini-gene pre-mRNA; assay: Chem-CLIP / C-Chem-CLIP in HeLa cells transfected with WT mini-gene; assay type: cell-based; settings: HeLa, WT mini-gene
Procedure: Measuring Cellular Occupancy by Chem-CLIP and C-Chem-CLIP. LAN5 cells were grown to ~80% confluency in 100 mm diameter dishes. HeLa cells were transfected as described in the Luciferase Reporter Assay to Study Exon 10 Alternative Splicing except they were re-plated in 100 mm diameter dishes and grown to ~80% confluency (~1 day). The cells were then treated with 1.5 μM of 3 or 4 for 12 h. For C-Chem-CLIP, dilutions of competing compounds 1 or 2 were pre-incubated with cells for 12 h prior to adding 3. After addition of 3, the cells were incubated for an additional 12 h. After the treatment period, whether for Chem-CLIP or C-Chem-CLIP studies, the cells were washed with 10 mL of 1×DPBS. Ice-cold 1×DPBS (10 mL) was then added to the plate followed by irradiation with 365 nm light in a UV Stratalinker 2400 (Stratagene). Cells were scraped with a cell scraper, transferred to a 15 mL conical vial, and collected by centrifugation. Total RNA was extracted using TRIzol LS Reagent (Invitrogen) per the manufacturer's protocol. […]
RT-qPCR was performed on RNA samples before and after pull-down as described in Real-Time Quantitative PCR to enable calculation of fold enrichment in the pulled down samples. Relative fold enrichment of tau pre-mRNA was measured using Equation 3: […]

WT mice = assay: Nesting activity, WT mice; assay type: in vivo, mouse
Procedure: Nesting Activity. From Day 1 to Day 20, mice were individually housed and nesting material from the previous day was removed. An intact 3.0 g nestlet was placed within each cage. Around 15 h later, the resulting nest was photographed for qualitative scoring, and the untorn nestlet was weighed if present. All nest images and weights were analyzed by a blinded individual and based on published criteria.^43 In brief, nesting is scored on a rating scale of 1-5 where if the nestlet is over 90% intact, it is given a nestlet score is 1 (Poor; FIG. 4C). When the nestlet is partially torn but >50% remains, the nestlet score is 2; a score of 3 is assigned when 50-90% of the nestlet is torn but spread around the cage and no identifiable nest site is found (Medium; FIG. 4C). When more than 90% of the nestlet is torn and the nest is identifiable but flat, the nestlet score is 4. When a near perfect nest is built and the wall is higher than the mouse's body, it is assigned a nestlet score of 5 (Good; FIG. 4C).

[2] = test system: WT MAPT mini-gene (exon 10 splicing); assay: 4R/3R MAPT mRNA by RT-qPCR, HeLa cells transfected with WT mini-gene; assay type: cell-based
Procedure: RNA Isolation and Real-Time Quantitative PCR (RT-qPCR). HeLa cells were treated as described in the Luciferase Reporter assay to Study Exon 10 Alternative Splicing. LAN5 cells were seeded in 12-well plates at 0.2×10^6 cells per well, treated with compound or ASO, and incubated for 48 h. Compound stocks prepared in DMSO and ASO stocks prepared in water were diluted in growth medium and added to cells. Total RNA was extracted from cells and analyzed via RT-qPCR to determine levels of 3R and 4R tau mRNA. In brief, the cells were washed with 1×DPBS and then lysed in the well using 300 μL of Lysis Buffer provided in a Quick-RNA MiniPrep kit (Zymo Research), which was used to extract total RNA per the manufacturer's protocol including the on-column DNase I digestion. The concentration of total RNA was measured by NanoDrop 2000 (Thermo Fisher Scientific). Only samples with OD260/OD280>1.8 were carried forward for analysis. Reverse transcription (RT) was carried out on 200 ng of total RNA using a qScript cDNA synthesis kit (QuantaBio) in a total volume of 10 μL according to the manufacturer's protocol. […] 4R/3R ratio were analyzed using ΔΔCt method using Equation 2: […]

SMILES: COc1cc(N)ncc1CCCN(C)CCCn1cnc2c3ccccc3n(C)c2c1=O [Compound 2, 3-(3-((3-(6-amino-4-methoxypyridin-3-yl)propyl)(methyl)amino)propyl)-5-methyl-3,5-dihydro-4H-pyrimido[5,4-b]indol-4-one]
- competition of the interaction of 3 with reporter [1]: competed dose dependently
- nesting behavior vs no treatment (WT mice; 20 days, 100 mg/kg p.o. q.o.d.): no significant difference in nesting behavior
- nest score at Day 20 (WT mice; scale 1-5, 100 mg/kg p.o. q.o.d.): 4.1±0.2
- average nest score over time (WT mice; scale 1-5, over 20 days, 100 mg/kg p.o. q.o.d.): 3.7-4.3
- PSI10 (PSI of MAPT exon 10) vs vehicle ([2]; HeLa, WT mini-gene): downregulated
- inhibition at 1.5 µM ([2]; Homo sapiens, 2 at 1.5 μM, 48 h, HeLa WT mini-gene, read-out: reduction of 4R/3R ratio (mRNA)): 41 ± 3%
